Consider 3 compounds from ChEMBL document CHEMBL5390291, “Glutathione-responsive PROTAC for targeted degradation of ERα in breast cancer cells” (Bioorg Med Chem, 2023).

The source made the active and inactive calls. The calls are words filed in the database; no cut-off is given here.

Data set [1] concerns the target T1, von Hippel-Lindau disease tumor suppressor/Estrogen receptor (Homo sapiens, UniProt P03372+P40337). Kind of data set: PROTAC activity at VHL/ER-alpha in human MCF7 cells assessed as ERalpha degradation incubated for 12 hrs by Western blot analysis. Format: cell-based.
The target of data set [2] is T1, von Hippel-Lindau disease tumor suppressor/Estrogen receptor. Put plainly: PROTAC activity at VHL/ER-alpha in human MCF7 cells assessed as ERalpha degradation at 2 uM incubated for 1 hr by Western blot analysis relative to control. The format is cell-based. Background: Immunoblotting shows a protein as a band on a membrane.
Target sequence in this assay (P03372 whole entry, looked up): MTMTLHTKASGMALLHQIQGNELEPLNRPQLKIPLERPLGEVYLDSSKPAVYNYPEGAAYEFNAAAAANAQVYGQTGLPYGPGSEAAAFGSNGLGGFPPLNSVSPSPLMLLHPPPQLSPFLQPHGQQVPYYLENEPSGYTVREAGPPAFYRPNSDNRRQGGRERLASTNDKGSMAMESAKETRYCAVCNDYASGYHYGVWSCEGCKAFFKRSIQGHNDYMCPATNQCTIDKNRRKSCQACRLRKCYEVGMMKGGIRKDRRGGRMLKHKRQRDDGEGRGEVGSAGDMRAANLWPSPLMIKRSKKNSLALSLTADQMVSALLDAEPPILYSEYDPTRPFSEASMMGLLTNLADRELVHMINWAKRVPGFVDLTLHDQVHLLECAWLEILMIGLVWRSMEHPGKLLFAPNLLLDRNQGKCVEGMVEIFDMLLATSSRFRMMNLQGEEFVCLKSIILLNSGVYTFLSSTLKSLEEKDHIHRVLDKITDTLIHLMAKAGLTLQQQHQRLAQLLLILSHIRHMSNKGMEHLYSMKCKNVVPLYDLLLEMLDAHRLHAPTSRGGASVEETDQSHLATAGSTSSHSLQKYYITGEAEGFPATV
Target sequence in this assay (P40337 whole entry, looked up): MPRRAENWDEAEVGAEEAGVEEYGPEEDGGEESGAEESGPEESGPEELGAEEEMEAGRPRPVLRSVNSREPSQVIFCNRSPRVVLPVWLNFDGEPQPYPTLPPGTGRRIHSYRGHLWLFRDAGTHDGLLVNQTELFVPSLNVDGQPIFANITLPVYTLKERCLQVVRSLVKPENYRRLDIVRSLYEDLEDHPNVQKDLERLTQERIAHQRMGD
Data set [3] shares this target. Kind of data set: PROTAC activity at VHL/GFP-tagged ER-alpha in human A549 cells assessed as ERalpha degradation by Western blot analysis. Format: cell-based.
Target sequence in this assay (P03372 whole entry, looked up): as the sequence (P03372 whole entry, looked up) above
Target sequence in this assay (P40337 whole entry, looked up): as the sequence (P40337 whole entry, looked up) above
Data set [4] has the same target. Put plainly: PROTAC activity at VHL/3 Flag-tagged ER-alpha in human A549 cells assessed as ERalpha degradation incubated for 12 hrs by Western blot analysis. Format: cell-based. The following applies: dose 0.5-10 µM.
Target sequence in this assay (P03372 whole entry, looked up): as the sequence (P03372 whole entry, looked up) above
Target sequence in this assay (P40337 whole entry, looked up): as the sequence (P40337 whole entry, looked up) above
Data set [5] shares this target. Kind of data set: PROTAC activity at VHL/3 Flag-tagged ER-alpha in human NCI-H1299 cells assessed as ERalpha degradation incubated for 12 hrs by Western blot analysis. The following applies: dose 0.5-10 µM. The format is cell-based.
Target sequence in this assay (P03372 whole entry, looked up): as the sequence (P03372 whole entry, looked up) above
Target sequence in this assay (P40337 whole entry, looked up): as the sequence (P40337 whole entry, looked up) above
For data set [6] the target is unchanged. Put plainly: PROTAC activity at VHL/3 Flag-tagged ER-alpha in HBE cells assessed as ERalpha degradation incubated for 12 hrs by Western blot analysis. Format: cell-based. The following applies: dose 0.5-10 µM.
Target sequence in this assay (P03372 whole entry, looked up): as the sequence (P03372 whole entry, looked up) above
Target sequence in this assay (P40337 whole entry, looked up): as the sequence (P40337 whole entry, looked up) above
Data set [7] in a line: GSH reactivity of compound in water/acetonitrile solution assessed as release efficiency at 0.1 mM incubated for 48 hrs by HPLC analysis relative to control. The format is physicochemical. The following applies: buffer, 100 µM.
A short description of data set [8]: Stability of compound in PBS buffer pH 7.4 at 0.1 mM incubated upto 48 hrs by HPLC analysis. As to conditions: pH 7.4, 48 h, 100 µM. Format: physicochemical.
A short description of data set [9]: Stability of compound in mouse plasma at 0.1 mM incubated for 8 hrs by HPLC analysis. The format is ADME, cell-free. As to conditions: 100 µM.
The target of data set [10] is T1, von Hippel-Lindau disease tumor suppressor/Estrogen receptor. Kind of data set: PROTAC activity at VHL/ER-alpha in human MCF7 cells assessed as ERalpha degradation incubated for 6 hrs by Western blot analysis. Format: cell-based. The following applies: dose 0.5-2 µM.
Target sequence in this assay (P03372 whole entry, looked up): as the sequence (P03372 whole entry, looked up) above
Target sequence in this assay (P40337 whole entry, looked up): as the sequence (P40337 whole entry, looked up) above
For data set [11] the target is unchanged. Put plainly: PROTAC activity at VHL/ER-alpha in human MCF7 cells assessed as ERalpha degradation at 0.5 uM incubated for 6 hrs by Western blot analysis relative to control. The format is cell-based.
For data set [12] the target is unchanged. Kind of data set: PROTAC activity at VHL/ER-alpha in human MCF7 cells assessed as ERalpha degradation at 10 uM incubated for 4 hrs by Western blot analysis. The format is cell-based.
Data set [13] shares this target. Put plainly: PROTAC activity at VHL/ER-alpha in human MCF7 cells assessed as ERalpha degradation at 10 uM incubated for 6 hrs by Western blot analysis. The format is cell-based.
The target is the same in data set [14]. Put plainly: PROTAC activity at VHL/3 Flag-tagged ER-alpha in HBE cells assessed as ERalpha degradation at 0.5 to 10 uM incubated for 6 hr by western blot analysis. Format: cell-based. As to conditions: dose 0.5-10 µM.
Data set [15] shares this target. Put plainly: PROTAC activity at VHL/ER-alpha in human BT-474 cells assessed as ERalpha degradation by Western blot analysis. The format is cell-based. As to conditions: TDE = time-dependent effect.
For data set [16] the target is unchanged. Kind of data set: PROTAC activity at VHL/ER-alpha in human MCF7 cells assessed as ERalpha degradation level at 10 uM by Western blot analysis. Format: cell-based. As to conditions: time 3-6 hrs, TDE = time-dependent effect.
For data set [17] the target is unchanged. Put plainly: PROTAC activity at VHL/ER-alpha in human MCF7 cells assessed as ERalpha degradation level at 10 uM incubated 3 to 6 hrs in the presence of NEM by Western blot analysis. The format is cell-based. The following applies: time 3-6 hrs.
Data set [18] shares this target. Kind of data set: PROTAC activity at VHL/3 Flag-tagged ER-alpha in human NCI-H1299 cells assessed as ERalpha degradation incubated for 6 hrs by Western blot analysis. Format: cell-based. As to conditions: dose 0.5-10 µM.
For data set [19] the target is unchanged. Kind of data set: PROTAC activity at VHL/ER-alpha in human MCF7 cells assessed as ERalpha degradation at 10 uM preincubated for 1 hr with MG132 followed by compound addition and measured after 6 hrs by Western blot analysis. Format: cell-based.
Data set [20] has the same target. Put plainly: PROTAC activity at VHL/ER-alpha in human MCF7 cells assessed as ERalpha degradation level at 10 uM pretreated with tamoxifen followed by compound addition and measured after 6 hrs by Western blot analysis. Format: cell-based.
Data set [21] has the same target. Kind of data set: PROTAC activity at VHL/ER-alpha in human MCF7 cells assessed as ERalpha degradation level at 10 uM pretreated with VHL-L followed by compound addition and measured after 6 hrs by Western blot analysis. The format is cell-based.
Data set [22] has the same target. Put plainly: PROTAC activity at VHL/ER-alpha in human VHL knockdown MCF7 cells assessed as ERalpha degradation level at 10 uM incubated for 6 hrs by Western blot analysis. Format: cell-based.
A further data set has as its system MCF7. Kind of data set: Antiproliferative activity against human MCF7 cells assessed as inhibition of cell growth at 10 uM incubated for 9 days by hemocytometer cell counting analysis. The following applies: time 9.0 day. Format: functional, cell-based.
The test system of data set [23] is BT-474. Put plainly: Antiproliferative activity against human BT-474 cells assessed as inhibition of cell growth at 10 uM incubated for 3 days by hemocytometer cell counting analysis. The format is functional, cell-based. As to conditions: time 3.0 day.
Data set [24] relates to BT-474. Put plainly: Antiproliferative activity against human GCLC knockdown BT-474 cells assessed as inhibition of cell growth at 10 uM incubated after 2 days by hemocytometer cell counting analysis. Format: functional, cell-based. The following applies: time 2.0 day.
Data set [25] concerns BT-474. Kind of data set: Antiproliferative activity against human SLC7A11 knockdown BT-474 cells assessed as inhibition of cell growth at 10 uM incubated after 2 days by hemocytometer cell counting analysis. The format is functional, cell-based. The following applies: time 2.0 day.

For `CC/C(=C(\c1ccccc1)c1ccc(OCC(=O)NCCOCCOCC(=O)N[C@H](C(=O)N2C[C@H](O)C[C@H]2C(=O)NCc2ccc(-c3scnc3C)cc2)C(C)(C)C)cc1)c1ccccc1`, in [1], the DC50 (commonly the concentration giving 50% degradation) was determined as 56 nM. Further, the figures for the Activity entry in [1] (dose 0.002-2 µM) and in [2] were “Dose-Dependent Effect” and 50%, respectively.

Regarding `CC/C(=C(\c1ccccc1)c1ccc(OCC(=O)NCCOCCOCC(=O)N[C@H](C(=O)N2C[C@H](OS(=O)(=O)c3ccccc3[N+](=O)[O-])C[C@H]2C(=O)NCc2ccc(-c3scnc3C)cc2)C(C)(C)C)cc1)c1ccccc1`, the outcome in data set [3], in data set [12], in [13] and in data set [14] was Active. Moreover, the Activity entry in [4] was “Dose-Dependent Effect”; in data set [5] it was “Dose-Dependent Effect”; in data set [6], “Dose-Dependent Effect”; in data set [7] it was 70%; in data set [10], “Dose-Dependent Effect”; in [11], 50%. Besides, the Activity entry in data set [15] is “Tde”; in data set [16] it was “Tde”; in data set [18], “Dose-Dependent Effect”. In addition, the Stability entry in data set [8] and in [9] was “Stable” each time. Further, the outcome in [17], in data set [19], in data set [20], in [21] and in [22] was inactive. In addition, the inhibition entry in the data set with MCF7 and with BT-474 [23] was “Active” each time. Also, the inhibition entry with BT-474 [24] and with BT-474 [25] was “inactive” throughout.

As for `Cc1ncsc1-c1ccc(CNC(=O)[C@@H]2C[C@@H](O)CN2C(=O)[C@@H](NC(=O)COCCOCCNC(=O)COc2ccc(C(=O)c3c(-c4ccc(O)cc4)sc4cc(O)ccc34)cc2)C(C)(C)C)cc1`, the DC50 in [1] came to 188 nM.
